Read-outs that look alike come from different tables or passages of the source. Where a SMILES comes first, the peptide text is derived from it. Where no end group is shown, it is not given here. [ ]: non-standard residue; d: D form. Abu = CC[C@H](N)C(=O)O
How the values were obtained:
[1] = test system: tumor targets that endogenously express HER2/neu (colon adenocarcinoma cell lines SW403 and HT-29); test: Primary in vitro CTL induction, recognition of wild-type peptide and endogenous tumor targets (51Cr release / in situ IFNγ ELISA); format: cell-based, human; conditions: number of donors yielding a positive response/total tested; normal donors
[2] = test system: peptide-pulsed target cells and transfected cells endogenously expressing the antigen; test: Recall CTL responses of PBMCs from ovarian cancer patients; format: cell-based, human; conditions: data from ovarian cancer patients
From the text: Immunogenicity was additionally confirmed using PBMCs isolated from cancer patients. Briefly, PBMCs were isolated from two patients with ovarian cancer, re-stimulated with peptide-pulsed monocytes and assayed for the ability to recognize peptide-pulsed target cells as well as transfected cells endogenously expressing the antigen.

[3] = target: HLA-A*0201 (Homo sapiens, UniProt P04439, D140Y/D185E/D98H/E176V/E277Q/G131W/G231S/I119V/I121R/I166T/I218V/L300P/L318F/N151K/N90K/P208A/P217A/Q86G/Q94H/R138H/R169H/T345S); format: binding
[4] = target: HLA-A*0203 (Homo sapiens, UniProt P04439, A173T/D140Y/D185E/D98H/E277Q/G131W/G231S/I119V/I121R/I166T/I218V/L180W/L300P/L318F/N151K/N90K/P208A/P217A/Q86G/Q94H/R138H/R169H/T345S); format: binding
[5] = target: HLA-A*0206 (Homo sapiens, UniProt P04439, D140Y/D185E/D98H/E176V/E277Q/F33Y/G131W/G231S/I119V/I121R/I166T/I218V/L300P/L318F/N151K/N90K/P208A/P217A/Q86G/Q94H/R138H/R169H/T345S); format: binding
[6] = target: HLA-A*6801 (Homo sapiens, UniProt P04439, A269V/D185E/E176V/E277Q/E87N/F33Y/G231S/I121M/I166T/I218V/L180W/L300P/L318F/N151K/P208A/P217A/Q86R/R169H/T345S); format: binding; conditions: Table XXIII, HLA-A3 supermotif-bearing peptides
[7] = target: HLA-A*1101 (Homo sapiens, UniProt P04439, A114D/D185E/E176A/F33Y/L180Q/S129P/T187R); format: binding; conditions: Table XXIII, HLA-A3 supermotif-bearing peptides
[8] = target: HLA-A*3101 (Homo sapiens, UniProt P04439, A270S/D185E/E176V/E277Q/F33T/G231S/G80R/H175R/I121M/I218V/I322F/K168Q/L300P/L318F/M331R/P217A/Q94H/R138Q/T323A/T345S/T97I/V358M); format: binding; conditions: Table XXIII, HLA-A3 supermotif-bearing peptides
[9] = test system: A3-supertype alleles (A*0301, A*1101, A*3101, A*3301, A*6801); test: A3-supertype cross-reactive binding; design: species or system human; conditions: of five A3-supertype alleles tested
[10] = target: HLA-A*3301 (Homo sapiens, UniProt P04439, A270S/D185E/E176V/E277Q/E87N/F33T/G231S/H175R/I121M/I218V/I322F/K168Q/K210R/L300P/L318F/M331R/P217A/Q86R/Q94H/R138Q/T323A/T345S/T97I/V358M/Y195H); format: binding; conditions: Table XXIII, HLA-A3 supermotif-bearing peptides
[11] = target: HLA-A*0301 (Homo sapiens, UniProt P04439); format: binding; conditions: Table XXIII, HLA-A3 supermotif-bearing peptides
[12] = HLA-A2 supermotif-bearing peptides, Table XXVII
[13] = Table XXII, A2 supermotif peptides and analogs

Molecule | IC50 [6] [nM] | IC50 [7] [nM] | IC50 [8] [nM] | No. of A3 Alleles Crossbound [9] | IC50 [10] [nM] | IC50 [11] [nM] | further results
CC(C)C[C@H](NC(=O)[C@H](CCC(N)=O)NC(=O)[C@@H](NC(=O)[C@@H](NC(=O)[C@H](CO)NC(=O)[C@@H](NC(=O)[C@H](CC(C)C)NC(=O)[C@@H](N)CS)[C@@H](C)O)[C@@H](C)O)C(C)C)C(=O)N[C@H](C(=O)O)C(C)C |  |  |  |  |  |  | CTL Tumor [1]: 0/4; CTL Wildtype [1]: 1/4; CTL Wildtype [2]: 1/2
CC(C)C[C@H](NC(=O)[C@H](CO)NC(=O)CNC(=O)[C@H](Cc1ccccc1)NC(=O)[C@@H](NC(=O)[C@@H](N)CCCCN)[C@@H](C)O)C(=O)N[C@@H](C)C(=O)N[C@@H](Cc1ccccc1)C(=O)N[C@H](C(=O)O)C(C)C |  |  |  |  |  |  | IC50 [3, 12]: 35 nM; IC50 ([4]; Table XXVII): 1010 nM
CC[C@H](C)[C@H](NC(=O)[C@H](CC(C)C)NC(=O)[C@@H](N)CO)C(=O)N[C@@H](CO)C(=O)N[C@@H](C)C(=O)N[C@H](C(=O)N[C@H](C(=O)NCC(=O)N[C@H](C(=O)O)C(C)C)C(C)C)C(C)C |  |  |  |  |  |  | IC50 [3, 12]: 7.1 nM; IC50 ([5]; Table XXVII): 20 nM; IC50 ([4]; Table XXVII): 16 nM
CC[C@H](C)[C@H](NC(=O)[C@H](CC(C)C)NC(=O)[C@@H](N)Cc1ccc(O)cc1)C(=O)N[C@@H](CCSC)C(=O)N[C@H](C(=O)N[C@@H](CCCCN)C(=O)N[C@@H](CS)C(=O)N[C@@H](Cc1c[nH]c2ccccc12)C(=O)N[C@@H](CCSC)C(=O)N[C@H](C(=O)O)C(C)C)C(C)C |  |  |  |  |  |  | IC50 [3, 12]: 13 nM; IC50 ([5]; Table XXVII): 18 nM; IC50 ([4]; Table XXVII): 116 nM
CC[C@H](C)[C@H](NC(=O)[C@H](CCSC)NC(=O)[C@H](Cc1c[nH]c2ccccc12)NC(=O)[C@H](CS)NC(=O)[C@H](CCCCN)NC(=O)[C@@H](NC(=O)[C@H](CCSC)NC(=O)[C@@H](NC(=O)[C@H](CCSC)NC(=O)[C@@H](N)Cc1ccc(O)cc1)[C@@H](C)CC)C(C)C)C(=O)O |  |  |  |  |  |  | CTL Tumor [1]: 0/1; CTL Wildtype [1]: 0/1; CTL Tumor [2]: 2/2; CTL Wildtype [2]: 2/2
CC[C@H](NC(=O)[C@H](CC(C)C)NC(=O)[C@H](C)N)C(=O)N[C@@H](CCCNC(=N)N)C(=O)N[C@@H](Cc1c[nH]c2ccccc12)C(=O)NCC(=O)N[C@@H](CC(C)C)C(=O)N[C@@H](CC(C)C)C(=O)N[C@@H](CC(C)C)C(=O)O [Her2/neu.5.B3] |  |  |  |  |  |  | IC50 [4, 13]: 12 nM
CC[C@H](NC(=O)[C@@H](NC(=O)[C@H](C)N)[C@@H](C)O)C(=O)N[C@@H](CCCNC(=N)N)C(=O)N[C@@H](Cc1c[nH]c2ccccc12)C(=O)NCC(=O)N[C@@H](CC(C)C)C(=O)N[C@@H](CC(C)C)C(=O)N[C@H](C(=O)O)C(C)C [Her2/neu.5.T2B3V9] (H-AT[Abu]RWGLLV-OH) |  |  |  |  |  |  | IC50 [3, 13]: 16700 nM; IC50 [5, 13]: 2180 nM
CC[C@H](NC(=O)[C@H](CCSC)NC(=O)[C@H](C)N)C(=O)N[C@@H](CCCNC(=N)N)C(=O)N[C@@H](Cc1c[nH]c2ccccc12)C(=O)NCC(=O)N[C@@H](CC(C)C)C(=O)N[C@@H](CC(C)C)C(=O)N[C@H](C(=O)O)C(C)C [Her2/neu.5M2B3V9] (H-AM[Abu]RWGLLV-OH) |  |  |  |  |  |  | IC50 [3, 13]: 36 nM; IC50 [5, 13]: 726 nM; IC50 [4, 13]: 16 nM
CC[C@H](NC(=O)[C@@H](NC(=O)[C@H](C)N)C(C)C)C(=O)N[C@@H](CCCNC(=N)N)C(=O)N[C@@H](Cc1c[nH]c2ccccc12)C(=O)NCC(=O)N[C@@H](CC(C)C)C(=O)N[C@@H](CC(C)C)C(=O)N[C@H](C(=O)O)C(C)C [Her2/neu.5V2B3V9] (H-AV[Abu]RWGLLV-OH) |  |  |  |  |  |  | IC50 [3, 13]: 10000 nM; IC50 [5, 13]: 2180 nM; IC50 [4, 13]: 141 nM
CC[C@H](C)[C@H](NC(=O)[C@H](CCC(=O)O)NC(=O)[C@@H](NC(=O)[C@H](CC(C)C)NC(=O)[C@@H](N)CO)[C@@H](C)O)C(=O)N[C@@H](CC(C)C)C(=O)N[C@@H](CCCCN)C(=O)NCC(=O)NCC(=O)N[C@H](C(=O)O)C(C)C [Her2/neu.144] |  |  |  |  |  |  | IC50 [4, 13]: 22 nM
CC(C)C[C@H](NC(=O)[C@H](CCC(N)=O)NC(=O)[C@H](CC(=O)O)NC(=O)[C@H](Cc1c[nH]c2ccccc12)NC(=O)[C@@H]1CCCN1C(=O)[C@@H](NC(=O)[C@@H](NC(=O)[C@@H](N)Cc1c[nH]cn1)C(C)C)C(C)C)C(=O)N[C@@H](Cc1ccccc1)C(=O)N[C@@H](CCCCN)C(=O)O [Her2/neu.478.V2K10] | 8.9 | 375 | > 10000 | 3 | > 10000 | 180 | 
CC(C)C[C@H](NC(=O)[C@H](CCC(N)=O)NC(=O)[C@H](CC(=O)O)NC(=O)[C@H](Cc1c[nH]c2ccccc12)NC(=O)[C@@H]1CCCN1C(=O)[C@@H](NC(=O)[C@@H](NC(=O)[C@@H](N)Cc1c[nH]cn1)[C@@H](C)O)C(C)C)C(=O)N[C@@H](Cc1ccccc1)C(=O)N[C@@H](CCCNC(=N)N)C(=O)O [Her2/neu.478] | 4 | 83 | 19 | 4 | 88 | 3140 | 
CC[C@H](NC(=O)[C@H](CC(N)=O)NC(=O)[C@@H](NC(=O)[C@@H](N)CC)C(C)C)C(=O)N[C@@H](CO)C(=O)N[C@@H](CCC(N)=O)C(=O)N[C@@H](Cc1ccccc1)C(=O)N[C@@H](CC(C)C)C(=O)N[C@@H](CCCCN)C(=O)O [Her2/neu.528.B1B4K9] (H-[Abu]VN[Abu]SQFLK-OH) | 15 | 22 | 60 | 4 | 4270 | 34 | 
CC[C@H](NC(=O)[C@H](CC(N)=O)NC(=O)[C@@H](NC(=O)[C@@H](N)CC)C(C)C)C(=O)N[C@@H](CO)C(=O)N[C@@H](CCC(N)=O)C(=O)N[C@@H](Cc1ccccc1)C(=O)N[C@@H](CC(C)C)C(=O)N[C@@H](CCCNC(=N)N)C(=O)O [Her2/neu.528.B1B4] (H-[Abu]VN[Abu]SQFLR-OH) | 10 | 80 | 38 | 5 | 58 | 177 | 
CC(C)C[C@H](NC(=O)[C@H](Cc1ccccc1)NC(=O)[C@H](CCC(N)=O)NC(=O)[C@H](CO)NC(=O)[C@H](CS)NC(=O)[C@H](CC(N)=O)NC(=O)[C@@H](NC(=O)[C@@H](N)CS)C(C)C)C(=O)N[C@@H](CCCNC(=N)N)C(=O)O [Her2/neu.528] | 18 | 194 | 34 | 4 | 50 | 7330 | 
AVPLDSTFYK [Her2/neU.997.V2K10] | 229 | 33 | 1500 | 2 | 22300 | 550 | 
H-QLMPYGCLL-OH [Her2/neu.799] |  |  |  |  |  |  | IC50 [5, 13]: 712 nM; IC50 [4, 13]: 114 nM
LVKSPNHVR [Her2/neu.852.R9] | 50 | > 10000 | 198 | 3 | 107 | 7860 | 
VLIQRNPQV |  |  |  |  |  |  | IC50 [3]: 55 nM; IC50 ([5]; Table XXVII): 385 nM; IC50 ([4]; Table XXVII): 135 nM
VLLGVVFGV |  |  |  |  |  |  | IC50 [3, 12]: 2.4 nM; IC50 ([5]; Table XXVII): 6 nM
